Data reported in BindingDB's records for patent US10285988 (Curegenix, 2019).

These compounds were tested against Protein Wnt-3a (Human, UniProt P56704) (assay: WNT Pathway Reporter Gene Assay).
Chain of Protein Wnt-3a (P56704 whole entry): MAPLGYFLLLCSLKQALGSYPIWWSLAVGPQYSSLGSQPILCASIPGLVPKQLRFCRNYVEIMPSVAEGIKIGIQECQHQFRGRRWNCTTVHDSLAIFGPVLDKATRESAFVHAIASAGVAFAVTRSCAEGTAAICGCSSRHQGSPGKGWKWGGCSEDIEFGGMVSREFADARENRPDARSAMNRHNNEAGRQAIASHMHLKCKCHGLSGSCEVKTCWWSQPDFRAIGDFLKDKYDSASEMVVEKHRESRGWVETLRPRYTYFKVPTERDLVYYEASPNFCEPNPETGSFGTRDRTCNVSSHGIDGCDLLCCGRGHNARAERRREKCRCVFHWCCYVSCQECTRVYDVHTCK
Method: Materials and Methods: NIH3T3 mouse fibroblast cells (American Type Culture Collection, Manassas, Va.) were transfected with a plasmid containing a luciferase gene driven by 5 copies of TCF elements. Stale cells selected with 1 μg/mL of Zeocin (Gibco/Invitrogen, Carlsbad, Calif.) are cultured in Dulbecco's modified Eagle's medium (Invitrogen, Carlsbad, Calif.) supplemented with 10% FBS (Invitrogen), 50 unit/mL penicillin and 50 μg/mL of streptomycin (Invitrogen) at 37° C. with 5% CO2 in air atmosphere. […] After 16 hours, the firefly luciferase activities are measured with the Steady-Glo Luciferase Assay System (Promega). The cells were treated with different concentrations of compounds of this invention during the co-culture. […] To normalize for cell quantity and viability, CellTiter Glo assay is next performed in a duplicate plate.
Work on `Cc1cc(-c2ncc(CNc3nccc4cc(-c5cnccn5)ccc34)cc2C)ccn1` [US10285988, Compound 70] yielded an IC50 of under 3 nM.
Work on `Cc1cc(-c2cc3ccnc(NCc4ccc(-c5ccnc(F)c5)c(F)c4)c3cn2)ccn1` [US10285988, Compound 28] yielded an IC50 of under 3 nM.
`Cc1cc(-c2ccc(CNc3nccc4cc(-c5cnccn5)ncc34)cc2)ccn1` [US10285988, Compound 35] showed an IC50 of under 3 nM.
`Cc1cc(-c2ccc(CNc3nccc4cc(-c5ccnc(C)c5)ncc34)cc2)ccn1` [US10285988, Compound 1] was tested, and the IC50 was under 3 nM.
In the case of `Cc1cc(-c2cc3ccnc(NCc4ccc(-c5ccnc(C)c5)c(C)c4)c3cn2)ccn1` [US10285988, Compound 2], the IC50 is reported as under 3 nM.
